US20020049173A1, “Alteration of cellular behavior by antisense modulation of mRNA processing” (priority 1999, published 2002)
In the oligonucleotide strings, read from the 5' end, every base follows the letter of its sugar. An asterisk marks phosphorothioate; unmarked linkages are phosphodiester. Other units and linkages are bracketed, terminal groups are in braces. A string of capitals states the bases alone. e = 2'-O-(2-methoxyethyl) (MOE); [5mC] = 5-methylcytosine

Experiments:
[1] = tested on: murine IL-5 receptor α mRNA, membrane form; experiment: Membrane IL-5 receptor α mRNA by Northern blot in BCL1 cells; assay type: cell-based, mouse; settings: for % control membrane IL-5 Rα / % inhib'n membrane IL-5 Rα: 24 hours, uniform 2′-MOE; for % INHIB'N MEMBRANE IL-5 RECEPTOR: 10 μM dose, exon-exon boundary oligonucleotides
From the text: (§1) Murine BCL1 cells were chosen for screening antisense oligonucleotides targeted to murine IL-5 receptor α. These are B-cell leukemia cells derived from a spontaneously arising tumor of BALB/c origin, and proliferate in response to murine or human IL-5. This is a CD5+line which resembles a subset of human chronic lymphocytic leukemia tumors and secretes IgM upon lipopolysaccharide stimulation. Cells were obtained from the American Type Culture Collection and cultured in RPMI 1640 medium supplemented with 10% heat-inactivated fetal bovine serum (Sigma Chemical Co., St. Louis, Mo.), 10 mM Hepes, pH 7.2, 50 μM 2-ME, 2 mM L-glutamine, 100 U/ml penicillin and 100 μg/ml streptomycin (Gibco, Grand Island, N.Y.).
(§2) The effect of these compounds on both membrane and soluble forms of murine IL-5 receptor α were measured and are shown in Table 1B. Oligonucleotides were screened in BCL1 cells at a dose of 10 μM and IL-5 receptor α mRNA was measured by Northern blot. Percent inhibition is compared to untreated (no oligo) control.
(§3) Total BCL1 cellular RNA was isolated using the RNeasy™ kit (Qiagen, Santa Clara Calif.) . Northern blotting was performed using standard methods. The cDNA probes were generated from oligonucleotides matching the exon sequences of either exons 2, 8, 9 or 10. Signals were quantitated using a Molecular Dynamics PhosphorImager.

[2] = tested on: murine IL-5 receptor α mRNA, soluble form; experiment: Soluble IL-5 receptor α mRNA by Northern blot in BCL1 cells; assay type: cell-based, mouse; settings: for % control soluble IL-5 Rα: 24 hours, uniform 2′-MOE; for % INHIB'N SOLUBLE IL-5 RECEPTOR: 10 μM dose, exon-exon boundary oligonucleotides
From the text: as §1, §2, §3

[3] = tested on: human bcl-x mRNA; experiment: Total bcl-x mRNA and bcl-xs/bcl-xl ratio in A549 cells, RNase protection; assay type: cell-based; settings: for bcl-xs/bcl-xl: 200 nM oligonucleotide (Table 15)
From the text: (§4) In accordance with the present invention, a series of oligonucleotides were designed to target different regions of human bcl-x RNA, using published sequences (Boise, L. H., et al., 1993, Cell 74, 597-608; Genbank Accession No. L20121, locus name “HSBCLXL,” incorporated herein as SEQ ID NO: 39). Antisense oligonucleotides were designed to target areas of exon 1 and exon 2 of human bcl-x, particularly around the exon 1/exon 2 splice site and in sequence regions present in bcl-xl but not in bcl-xs. All backbone linkages are phosphorothioates; All 2′MOE cytosines are 5-methylcytosines.
(§5) Oligonucleotides were evaluated for their respective effects on bcl-xs and bcl-xl3 mRNA levels in A549 cells along with total bcl-x mRNA levels, using the RIBOQUANT™ RNase protection kit (Pharmingen, San Diego Calif.). All assays were performed according to manufacturer's protocols.
(§6) A “walk” was done in this region with 20mer 2′-MOE phosphorothioate oligonucleotides targeted to sequences whose 5′ ends were 24, 26, 29, 31, 33, 37, 39, 41, 43, 44, 45 and 47 bases upstream of the splice site. These oligonucleotides were screened as before at a dose of 200 nM oligonucleotide for effect on short and long bcl-x transcripts.

[4] = tested on: human bcl-xs mRNA; experiment: bcl-xs mRNA in A549 cells, RIBOQUANT RNase protection; assay type: cell-based; settings: 200 nM oligonucleotide (Table 15)
From the text: as §4, §5, §6

[5] = tested on: human bcl-xl mRNA; experiment: bcl-xl mRNA in A549 cells, RIBOQUANT RNase protection; assay type: cell-based; settings: 200 nM oligonucleotide (Table 15)
From the text: as §4, §5, §6

[6] = tested on: human bcl-x mRNA; experiment: Total bcl-x mRNA and bcl-xs/bcl-xl ratio in A549 cells, RNase protection; assay type: cell-based
[7] = BCL1 cells, 10 μM, Northern blot, compared to untreated control, 2′-MOE gapmers

| Substance | % control membrane IL-5 Rα ([1]; BCL1 cells, 10 μM) | % inhib'n membrane IL-5 Rα ([1]; BCL1 cells, 10 μM) | % control soluble IL-5 Rα ([2]; BCL1 cells, 10 μM) | % CONTROL bcl-xs [4] | % CONTROL bcl-xl [5] | bcl-xs/bcl-xl ([3]; A549 cells) | also measured |
| --- | --- | --- | --- | --- | --- | --- | --- |
| 18008 (ACTCTGCAGATGAGTGAGAA; antisense; listed as DNA, chemistry not fully specified) [compound 18008] |  |  |  |  |  |  | % inhibition of membrane IL-5 Rα [1, 7]: 75%; % inhibition of soluble IL-5 Rα [2, 7]: 75% |
| 21750 (eG*eA*e[5mC]*eT*eT*e[5mC]*e[5mC]*eT*eT*eT*e[5mC]*e[5mC]*eT*eT*eT*e[5mC]*e[5mC]*eT*eG*eG) [compound 21750] | 8% | 92% | 197% |  |  |  |  |
| 21751 (e[5mC]*eA*eA*eG*eG*eA*e[5mC]*eT*eT*e[5mC]*e[5mC]*eT*eT*eT*e[5mC]*e[5mC]*eT*eT*eT*e[5mC]; splice-switching) [compound 21751] | 9% | 91% | 191% |  |  |  |  |
| 21752 (eG*e[5mC]*e[5mC]*eA*eT*eT*e[5mC]*eT*eA*e[5mC]*e[5mC]*eA*eA*eG*eG*eA*e[5mC]*eT*eT*e[5mC]) [compound 21752] | 6% |  | 194% |  |  |  |  |
| 21753 (eA*e[5mC]*eA*eA*eT*eG*eA*eG*eA*eT*eG*e[5mC]*e[5mC]*eA*eT*eT*e[5mC]*eT*eA*e[5mC]; splice-switching) [compound 21753] | 6% | 94% | 175% |  |  |  |  |
| 21754 (eT*eG*eT*eT*eG*eG*eG*eA*eG*e[5mC]*eA*e[5mC]*eA*eA*eT*eG*eA*eG*eA*eT; splice-switching) [compound 21754] | 8% | 92% | 184% |  |  |  |  |
| 21755 (eA*eG*e[5mC]*eA*eG*eG*e[5mC]*eA*eG*e[5mC]*eT*eG*eT*eT*eG*eG*eG*eA*eG*e[5mC]; splice-switching) [compound 21755] | 16% | 84% | 181% |  |  |  |  |
| 21756 (eA*eA*e[5mC]*eA*eA*eG*eA*e[5mC]*eG*eA*eA*eG*e[5mC]*eA*eG*eG*e[5mC]*eA*eG*e[5mC]; splice-switching) [compound 21756] | 6% | 94% | 166% |  |  |  |  |
| 21757 (eT*eG*eA*eG*eA*eA*eG*eA*eT*eT*eA*eA*e[5mC]*eA*eA*eG*eA*e[5mC]*eG*eA; splice-switching) [compound 21757] | 19% | 81% | 144% |  |  |  |  |
| 21758 (eT*eG*e[5mC]*eA*eG*eA*eT*eG*eA*eG*eT*eG*eA*eG*eA*eA*eG*eA*eT*eT; splice-switching) [compound 21758] | 31% | 69% | 116% |  |  |  |  |
| 21759 (eA*e[5mC]*eT*e[5mC]*eT*eG*e[5mC]*eA*eG*eA*eT*eG*eA*eG*eT*eG*eA*eG*eA*eA; splice-switching) [compound 21759] | 34% | 66% | 134% |  |  |  |  |
| 21760 (e[5mC]*eT*eA*e[5mC]*eA*e[5mC]*eT*e[5mC]*eT*eG*e[5mC]*eA*eG*eA*eT*eG*eA*eG*eT*eG) [compound 21760] | 55% | 45% | 116% |  |  |  |  |
| 21847 (eG*eT*eT*eT*eT*eT*e[5mC]*e[5mC]*eT*eT*e[5mC]*eT*eG*eA*eA*eT*eG*eT*eG*eA; antisense) [compound 21847] |  |  |  |  |  |  | % INHIB'N MEMBRANE IL-5 RECEPTOR [1]: 23%; % INHIB'N SOLUBLE IL-5 RECEPTOR [2]: 20% |
| 21849 (e[5mC]*eT*eT*eT*e[5mC]*e[5mC]*eT*eT*eT*e[5mC]*e[5mC]*e[5mC]*eA*e[5mC]*eA*eT*eA*eA*eA*eT) [compound 21849] |  |  |  |  |  |  | % INHIB'N MEMBRANE IL-5 RECEPTOR [1]: 70%; % INHIB'N SOLUBLE IL-5 RECEPTOR [2]: 5% |
| 21851 (eT*eA*eA*eA*eT*eG*eA*e[5mC]*eA*e[5mC]*eA*e[5mC]*eT*e[5mC]*eT*eG*e[5mC]*eA*eG*eA; antisense) [compound 21851] |  |  |  |  |  |  | % INHIB'N MEMBRANE IL-5 RECEPTOR [1]: 61%; % INHIB'N SOLUBLE IL-5 RECEPTOR [2]: 0% |
| 21853 (eT*eA*eA*eA*eT*eG*eA*e[5mC]*eA*e[5mC]*e[5mC]*e[5mC]*eA*e[5mC]*eA*eT*eA*eA*eA*eT; antisense) [compound 21853] |  |  |  |  |  |  | % INHIB'N MEMBRANE IL-5 RECEPTOR [1]: 14%; % INHIB'N SOLUBLE IL-5 RECEPTOR [2]: 45% |
| 21855 (eT*e[5mC]*eG*eA*eA*eG*eG*eT*eT*eT*e[5mC]*e[5mC]*eA*e[5mC]*eA*eT*eA*eA*eA*eT) [compound 21855] |  |  |  |  |  |  | % INHIB'N MEMBRANE IL-5 RECEPTOR [1]: 14%; % INHIB'N SOLUBLE IL-5 RECEPTOR [2]: 25% |
| 23172 (GTTCCTGGCCCTTTCGGCTC; listed as DNA, chemistry not fully specified) [compound 23172] |  |  |  |  |  |  | bcl-xs/bcl-xl* (change from the no-oligo ratio 17.56, which reads 1) ([3]; A549 cells): 1.1 |
| 26067 (GGATCCAAGGCTCTAGGTGG; all 2'-MOE, all phosphorothioate, methylation of C not given here) [compound 26067] |  |  |  | 211% | 32% | 6.59 |  |
| 26069 (antisense TCTCCTGGATCCAAGGCTCT; all 2'-MOE, all phosphorothioate, methylation of C not given here) [compound 26069] |  |  |  | 232% | 40% | 5.80 |  |
| 26070 (antisense GTTCTCCTGGATCCAAGGCT; all 2'-MOE, all phosphorothioate, methylation of C not given here) [compound 26070] |  |  |  | 242% | 37% | 6.54 |  |
| 26071 (antisense GCCGTTCTCCTGGATCCAAG; all 2'-MOE, all phosphorothioate, methylation of C not given here) [compound 26071] |  |  |  | 295% | 37% | 7.97 |  |
| 26072 (antisense CCGCCGTTCTCCTGGATCCA; all 2'-MOE, all phosphorothioate, methylation of C not given here) [compound 26072] |  |  |  | 226% | 42% | 5.38 |  |
| 26080 (antisense CTGGTTACACGACTCCAGGT; mismatch control, further chemistry not given here) [compound 26080] |  |  |  |  |  |  | ratio of bcl-xs/bcl-xl ([3]; Oligo Concentration 200 (unit not given)): <1; ratio of bcl-xs/bcl-xl ([6]; Oligo Concentration 400 (unit not given)): 1; ratio of bcl-xs/bcl-xl ([6]; Oligo Concentration 600 (unit not given)): 3 |
| SEQ ID NO 54: CTCTAGGTGGTCATTCAGGT; 20mer 2′-MOE phosphorothioate, no ISIS # printed; Exon 1L 652-671 (all 2'-MOE, all phosphorothioate, methylation of C not given here) |  |  |  | 300% | 42% | 7.14 |  |
| SEQ ID NO 55: GGCTCTAGGTGGTCATTCAG; 20mer 2′-MOE phosphorothioate, no ISIS # printed; Exon 1L 654-673 (all 2'-MOE, all phosphorothioate, methylation of C not given here) |  |  |  | 316% | 47% | 6.72 |  |
| SEQ ID NO 57: AAGGCTCTAGGTGGTCATTC; 20mer 2′-MOE phosphorothioate, no ISIS # printed; Exon 1L 656-675 (all 2'-MOE, all phosphorothioate, methylation of C not given here) |  |  |  | 405% | 53% | 7.64 |  |
| SEQ ID NO 58: CCAAGGCTCTAGGTGGTCAT; 20mer 2′-MOE phosphorothioate, no ISIS # printed; Exon 1L 658-677 (all 2'-MOE, all phosphorothioate, methylation of C not given here) |  |  |  | 271% | 26% | 10.42 |  |
